Laboratory results as given in patent publication US9315498B2, “Arlethynyl derivatives” (Hoffmann-La Roche Inc., priority 2010, dated 2016).

Molecular target: human mGlu5a receptor (Homo sapiens (Human), UniProt P41594)
Experiment: Intracellular Ca2+ mobilization assay (mGlu5 PAM)
Assay type: cell-based
Conditions: for EC50: HEK-293 cells stably transfected with human mGlu5a, L-glutamate added at EC20 after pre-incubation with test compound, read-out: EC50 (nM) mGlu5PAM; for Emax: maximal response in % of the maximal stimulatory effect obtained with saturating concentrations of L-glutamate, read-out: Eff. (%)
Summary of the method: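 HEK-293 cells stably expressing human mGlu5a at low level were loaded with Fluo-4AM and preincubated 10–30 min at 37 °C with 11-point half-log compound dilutions. L-glutamate was then added at its daily-determined EC20 (typically around 80 μM). Peak fluorescence minus basal, normalized to maximal glutamate effect, was fitted to give EC50, Hill slope and maximal response.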

Sequence of human mGlu5a receptor (P41594 other isoform, or with tags, fused parts or gaps): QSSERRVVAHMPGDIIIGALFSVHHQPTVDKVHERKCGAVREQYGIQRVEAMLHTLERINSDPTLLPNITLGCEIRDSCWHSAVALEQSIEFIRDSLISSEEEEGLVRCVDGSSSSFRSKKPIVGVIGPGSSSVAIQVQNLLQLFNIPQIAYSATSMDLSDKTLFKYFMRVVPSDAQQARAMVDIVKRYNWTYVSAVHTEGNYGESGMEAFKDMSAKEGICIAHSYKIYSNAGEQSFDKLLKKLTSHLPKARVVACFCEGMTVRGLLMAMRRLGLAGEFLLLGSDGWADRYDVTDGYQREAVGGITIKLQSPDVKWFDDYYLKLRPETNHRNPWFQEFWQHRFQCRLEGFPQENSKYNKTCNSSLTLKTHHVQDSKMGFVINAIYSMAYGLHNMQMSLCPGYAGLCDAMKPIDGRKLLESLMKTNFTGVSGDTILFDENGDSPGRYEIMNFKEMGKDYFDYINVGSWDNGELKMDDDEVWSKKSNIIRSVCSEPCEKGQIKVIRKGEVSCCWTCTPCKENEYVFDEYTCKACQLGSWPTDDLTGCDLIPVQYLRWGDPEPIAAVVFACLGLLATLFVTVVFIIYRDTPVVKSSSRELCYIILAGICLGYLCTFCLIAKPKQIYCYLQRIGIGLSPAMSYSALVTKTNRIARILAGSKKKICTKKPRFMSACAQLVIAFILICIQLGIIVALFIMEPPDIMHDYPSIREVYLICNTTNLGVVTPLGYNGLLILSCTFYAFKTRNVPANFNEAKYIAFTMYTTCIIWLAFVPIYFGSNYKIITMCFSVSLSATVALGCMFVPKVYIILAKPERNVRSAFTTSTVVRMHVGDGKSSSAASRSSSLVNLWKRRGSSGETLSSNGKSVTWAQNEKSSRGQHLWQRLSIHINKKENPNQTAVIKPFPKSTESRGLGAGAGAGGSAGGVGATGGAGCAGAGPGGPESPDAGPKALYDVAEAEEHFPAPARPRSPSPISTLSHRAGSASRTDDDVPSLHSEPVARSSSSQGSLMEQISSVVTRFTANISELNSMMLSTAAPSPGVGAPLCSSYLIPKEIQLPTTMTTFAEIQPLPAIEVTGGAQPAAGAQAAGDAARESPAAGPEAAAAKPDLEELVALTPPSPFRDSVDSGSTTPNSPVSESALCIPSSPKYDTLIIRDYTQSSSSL

SMILES | EC50 [nM] | Emax [%]
Cc1cccc(C#Cc2ccc(N3CC(C)(C)N(C)C3=O)nn2)c1 [Example 154, 3,4,4-Trimethyl-1-(6-(m-tolylethynyl)pyridazin-3-yl)imidazolidin-2-one] | 61 | 108
CC1(C)CCN(c2cnc(C#Cc3cccc(F)c3)cn2)C(=O)N1 [Example 166, 1-(5-((3-Fluorophenyl)ethynyl)pyrazin-2-yl)-4,4-dimethyltetrahydropyrimidin-2(1H)-one] | 140 | 56
CC1(C)CN(c2ccc(C#Cc3ccc(F)cc3)cn2)C(=O)O1 [Example 32, 3-[5-(4-Fluoro-phenylethynyl)-pyridin-2-yl]-5,5-dimethyl-oxazolidin-2-one] | 19 | 60
CC(C)N1C(=O)N(c2ncc(C#Cc3ccc(F)cc3)cn2)CC1(C)C [Example 142, 1-[5-(4-Fluoro-phenylethynyl)-pyrimidin-2-yl]-3-isopropyl-4,4-dimethyl-imidazolidin-2-one] | 78 | 74
CN1C(=O)N(c2ncc(C#Cc3ccccc3)cn2)CC1(C)C [Example 122, 3,4,4-Trimethyl-1-(5-phenylethynyl-pyrimidin-2-yl)-imidazolidin-2-one] | 11 | 36
Cc1cccc(C#Cc2ccc(N3CC(C)(C)N(C)C3=O)nc2)c1 [Example 56, 3,4,4-Trimethyl-1-(5-m-tolylethynyl-pyridin-2-yl)-imidazolidin-2-one] | 87 | 56
CN1C(=O)N(c2ccc(C#Cc3ccccc3)cn2)CC1C1CC1 (racemic) [Example 83, (RS)-4-Cyclopropyl-3-methyl-1-(5-phenylethynyl-pyridin-2-yl)-imidazolidin-2-one] | 53 | 86
CC1(C)CN(c2ccc(C#Cc3ccccc3)cn2)C1=O [Example 97, 3,3-Dimethyl-1-(5-phenylethynyl-pyridin-2-yl)-azetidin-2-one] | 36 | 71
CC1(C)CCN(c2ccc(C#Cc3cncc(Cl)c3)cn2)C(=O)O1 [Example 75, 3-[5-(5-Chloro-pyridin-3-ylethynyl)-pyridin-2-yl]-6,6-dimethyl-[1,3]oxazinan-2-one] | 27 | 87
CC1(C)CC(=O)N(c2ncc(C#Cc3cccc(F)c3)cn2)C1 [Example 118, 1-[5-(3-Fluoro-phenylethynyl)-pyrimidin-2-yl]-4,4-dimethyl-pyrrolidin-2-one] | 13 | 78
CC1(C)CCN(c2ccc(C#Cc3ccc(F)cc3)cn2)C(=O)C1 [Example 91, 5′-(4-Fluoro-phenylethynyl)-4,4-dimethyl-3,4,5,6-tetrahydro-[1,2′]bipyridinyl-2-one] | 67 | 89
CN1C(=O)N(c2ccc(C#Cc3ccc(F)cc3)cn2)CC1(C)C [Example 57, 1-[5-(4-Fluoro-phenylethynyl)-pyridin-2-yl]-3,4,4-trimethyl-imidazolidin-2-one] | 35 | 78
CC1(C)CN(c2ccc(C#Cc3ccc(F)c(F)c3)cn2)C(=O)O1 [Example 33, 3-[5-(3,4-Difluoro-phenylethynyl)-pyridin-2-yl]-5,5-dimethyl-oxazolidin-2-one] | 32 | 44
O=C1[C@H]2CCC[C@H]2N1c1ccc(C#Cc2ccccc2)cn1 (racemic) [Example 46, (1RS,5SR)-6-(5-Phenylethynyl-pyridin-2-yl)-6-aza-bicyclo[3.2.0]heptan-7-one] | 26 | 27
CN1C(=O)N(c2ccc(C#Cc3ccccc3)cn2)CCC1(C)C [Example 67, 3,4,4-Trimethyl-1-(5-phenylethynyl-pyridin-2-yl)-tetrahydro-pyrimidin-2-one] | 15 | 81
CC1(C)CN(c2ccc(C#Cc3ccccc3)cn2)C(=O)CO1 [Example 172, 6,6-Dimethyl-4-(5-phenylethynyl-pyridin-2-yl)-morpholin-3-one] | 29 | 82
CC1(C)CC(=O)N(c2ncc(C#Cc3ccc(F)cc3)cn2)C1 [Example 120, 1-[5-(4-Fluoro-phenylethynyl)-pyrimidin-2-yl]-4,4-dimethyl-pyrrolidin-2-one] | 92 | 81
CC1(C)CC(=O)N(c2ccc(C#Cc3cccnc3)cn2)C1 [Example 38, 4,4-Dimethyl-1-(5-pyridin-3-ylethynyl-pyridin-2-yl)-pyrrolidin-2-one] | 33 | 147
Cn1cc(C#Cc2ccc(N3CC(C)(C)OC3=O)nc2)cn1 [Example 31, 5,5-Dimethyl-3-[5-(1-methyl-1H-pyrazol-4-ylethynyl)-pyridin-2-yl]-oxazolidin-2-one] | 26 | 55
CN1C(=O)N(c2ccc(C#Cc3cnn(C)c3)cn2)CC1(C)C [Example 50, 3,4,4-Trimethyl-1-[5-(1-methyl-1H-pyrazol-4-ylethynyl)-pyridin-2-yl]-imidazolidin-2-one] | 27 | 41

SMILES | EC50 [nM] | Emax [%]
CC1(C)CCN(c2ccc(C#Cc3cccnc3)cn2)C(=O)O1 [Example 73, 6,6-Dimethyl-3-(5-pyridin-3-ylethynyl-pyridin-2-yl)-[1,3]oxazinan-2-one] | 59 | 98
O=C1OC2(CC2)CN1c1ccc(C#Cc2ccccc2)cn1 [Example 9, 6-(5-Phenylethynyl-pyridin-2-yl)-4-oxa-6-aza-spiro[2.4]heptan-5-one] | 15 | 83
CN1C(=O)N(c2cnc(C#Cc3cccnc3)cn2)CC1(C)C [Example 157, 3,4,4-Trimethyl-1-(5-(pyridin-3-ylethynyl)pyrazin-2-yl)imidazolidin-2-one] | 206 | 34
O=C1OC2(CCC2)CN1c1ccc(C#Cc2ccccc2)cn1 [Example 10, 7-(5-Phenylethynyl-pyridin-2-yl)-5-oxa-7-aza-spiro[3.4]octan-6-one] | 25 | 109
CO[C@H]1C(=O)N(c2ncc(C#Cc3cccc(F)c3)cn2)CC1(C)C (single isomer, unassigned) [Example 132, (S or R)-1-[5-(3-Fluoro-phenylethynyl)-pyrimidin-2-yl]-3-methoxy-4,4-dimethyl-pyrrolidin-2-one] | 21 | 69
CN1C(=O)N(c2ccc(C#Cc3ccccc3)cn2)CC1(C)C [Example 16, 3,4,4-Trimethyl-1-(5-phenylethynyl-pyridin-2-yl)-imidazolidin-2-one] | 35 | 103
CN1C(=O)N(c2ncc(C#Cc3ccc(F)c(F)c3)cn2)CC1(C)C [Example 126, 1-[5-(3,4-Difluoro-phenylethynyl)-pyrimidin-2-yl]-3,4,4-trimethyl-imidazolidin-2-one] | 23 | 36
CCN1C(=O)N(c2ncc(C#Cc3cccc(F)c3)cn2)CC1(C)C [Example 144, 1-[5-(3-Fluoro-phenylethynyl)-pyrimidin-2-yl]-3-ethyl-4,4-dimethyl-imidazolidin-2-one] | 31 | 58
CC1(C)CC(=O)N(c2ncc(C#Cc3cccc(Cl)c3)cn2)C1 [Example 119, 1-[5-(3-Chloro-phenylethynyl)-pyrimidin-2-yl]-4,4-dimethyl-pyrrolidin-2-one] | 11 | 26
CC1(C)CC(=O)N(c2ncc(C#Cc3ccccc3)cc2F)C1 [Example 21, 1-(3-Fluoro-5-phenylethynyl-pyridin-2-yl)-4,4-dimethyl-pyrrolidin-2-one] | 30 | 128
CC1CN(c2ncc(C#Cc3ccc(F)cc3)cn2)C(=O)OC1(C)C (racemic) [Example 149, (RS)-3-[5-(4-Fluoro-phenylethynyl)-pyrimidin-2-yl]-5,6,6-trimethyl-[1,3]oxazinan-2-one] | 114 | 78
CO[C@@H]1C(=O)N(c2ccc(C#Cc3ccccc3)cn2)CC1(C)C (single isomer, unassigned) [Example 61] | 75 | 70
CC1(C)OC(=O)N(c2ccc(C#Cc3ccccc3)cn2)C1(C)C [Example 28, 4,4,5,5-Tetramethyl-3-(5-phenylethynyl-pyridin-2-yl)-oxazolidin-2-one] | 48 | 31
COC1C(=O)N(c2ccc(C#Cc3cccc(C)c3)cn2)CC1(C)C (racemic) [Example 64, (RS)-3-Methoxy-4,4-dimethyl-1-(5-m-tolylethynyl-pyridin-2-yl)-pyrrolidin-2-one] | 87 | 56
CN1C(=O)N(c2ncc(C#Cc3cccc(F)c3)cc2F)CC1(C)C [Example 111] | 32 | 107
O=C1N(c2ccc(C#Cc3cccnc3)cn2)CC2CCCCN12 (racemic) [Example 70, (RS)-2-(5-Pyridin-3-ylethynyl-pyridin-2-yl)-hexahydro-imidazo[1,5-a]pyridin-3-one] | 74 | 51
CC1CN(c2ncc(C#Cc3cc(F)ccc3F)cn2)C(=O)OC1(C)C (racemic) [Example 146, (RS)-3-[5-(2,5-Difluoro-phenylethynyl)-pyrimidin-2-yl]-5,6,6-trimethyl-[1,3]oxazinan-2-one] | 69 | 64
CC1(C)CNC(=O)N(c2ccc(C#Cc3ccccc3)cn2)C1 [Example 25, 5,5-Dimethyl-1-(5-phenylethynyl-pyridin-2-yl)-tetrahydro-pyrimidin-2-one] | 69 | 148
CN1C(=O)N(c2cnc(C#Cc3ccccc3)cn2)CCC1(C)C [Example 165, 3,4,4-Trimethyl-1-(5-(phenylethynyl)pyrazin-2-yl)tetrahydropyrimidin-2(1H)-one] | 36 | 55
